# Reference: patent US11932870B2, “Compositions and methods for immune cell modulation in adoptive immunotherapies” (Fate Therapeutics, Inc., priority 2016, dated 2024)
# “Also recorded” adds a separate entry of the source.
# What was measured:
# Format in all cases: cell-based, human
# CD8+ T cells = assay: RNA-Seq gene expression of memory T cell genes; settings: DCC-2036 1 μM, TWS-119 10 μM, roughly 6 days, 5 donors, relative to vehicle, FIG. 5
# Text: To characterize the impact of DCC-2036 in memory cell skewing, gene expression changes for a panel of key genes, (i.e. CCR7, CD62L, etc.) previously known to be highly expressed in memory T cells were investigated. Cryopreserved CD8+ T cells from 5 different donors were thawed and washed into X-Vivo 15 with 5% human AB serum, IL-2, pen/strep, and additional supplements. Cells were dispensed into flat-bottom 384-well plates at 5×10^5 cells/ml with anti-CD3/anti-CD28 beads. Cells were either treated with DCC-2036 at a final concentration of 1 μM, TWS-119 at 10 μM, or received a vehicle (DMSO) only control treatment. Cells were incubated for roughly 6 days at 37 degrees Celsius with 5% CO2.
# Post incubation, cells were lysed and RNA was isolated, fragmented and cDNA was generated in the presence of the appropriate sequencing adapters and sequencing was performed using Illumina next generation sequencing technology (NGS). RNA-Sequencing (RNA-Seq) utilizes the capabilities of NGS to not only acquire nucleotide sequence information, but also provide quantitative gene expression measurements from a given samples transcriptome. Gene transcripts were normalized to counts per million (CPM) reads per samples and relative quantitation of each gene transcript was determined for each in treatment relative to the matching vehicle control treated samples. […]
# [1] = test system: CD8 T cells transduced with the CAR-2 construct; assay: Larger-scale (24-well GREX) CAR-T culture: viability and expansion; settings: expanded with compound or vehicle for 6 days
# Text: The cells were transduced with the CAR-2 construct (FIG. 2) one day after activation and then replated into 24-well GREX plates with or without compounds. Half the media was replaced every two days thereafter until harvest one week post activation. Cells were activated and expanded in the presence of compound or vehicle for 6 days.
# viable CD4+ population = assay: T cell compound screen: CCR7+CD62L+ cells in the viable CD4+ population (flow cytometry); settings: 10 μM, about 6 days, anti-CD3/anti-CD28 beads; hit = Z-score > +2 for percent or absolute number CCR7+CD62L+ in CD4+
# Text: In Vitro T Cell Culture. Fresh leukopaks (AllCells, Alameda, CA) were obtained from healthy donors, from which T cells were negatively selected using the EasySep Human T cell Enrichment Kit (Stem Cell Technologies, Vancouver, Canada). The freshly isolated T cells were aliquoted and cryopreserved. On the day the screens were initiated, T cells were thawed and washed into X-Vivo 15 with 5% human AB serum, IL-2, pen/strep, and additional supplements. Cells were dispensed into flat-bottom 384-well plates at 5×10^5 cells/ml with anti-CD3/anti-CD28 beads. Individual compounds were added at a final concentration of 10 μM to each well from column 3 to column 22 of each plate. Positive and negative controls were added to additional wells. Cells were incubated for about 6 days at 37 degrees with 5% CO2.
# Flow Cytometry. On Day 6 of culture, cells were stained with a fixable viability marker and fluorophore-conjugated antibodies: CD3, CD4, CD8, CD45RA, CD45RO, CD62L, CCR7, CD27, and CD122 (BD Biosciences, San Jose, CA; and BioLegend, San Diego, CA). Fluorescent absolute counting beads (Spherotech, Lake Forest, IL) were added just prior to acquisition. Data acquisition was performed on a BD Fortessa X-20 (BD Biosciences) and data were analyzed using Treestar software (FlowJo, Ashland, OR) and Spotfire (Tibco, Boston, MA).
# These cells are characterized by expression of CCR7 and CD62L. Therefore, cells co-expressing both of these identifying markers were evaluated. Within the viable CD4+ population and viable CD8+ population, the percent of cells co-expressing CCR7 and CD62L was determined. The expression of either CD62L or CCR7 on T cells, as indicative of the desired T cell subsets, have been described as having favorable functional characteristics for CAR-T cell therapy, and potentially other adoptive T cell therapies.
# The number of events in each of these gates relative to the number of absolute counting beads in each sample was calculated, defining a measure of the absolute number of naïve, stem cell memory, or central memory T cells within the CD4+ and/or CD8+ populations. A z-Score relative to the screened compound samples within each 384-well plate was calculated for each of these four values: 1) percent CCR7+CD62L+in CD4+, 2) percent CCR7+CD62L+in CD8+, 3) absolute relative number of CCR7+CD62L+in CD4+, and 4) absolute number of CCR7+CD62L+in CD8+(FIGS. 1A and 1i). Z-scores were also calculated for the percent viability of all cells within each sample and the relative absolute number of cells within each sample. A “Z-Score” is a statistical measurement of a score's relationship to the mean in a group of scores. AZ-score of 0 means the score is the same as the mean. AZ-score can also be positive or negative, indicating whether it is above or below the mean and by how many standard deviations.
# CD8 CAR-T cells = assay: Exhaustion marker expression (PD-1, Tim-3) on CD8 CAR-T cells
# Method: Culturing cells in large-scale for phenotypic and exhaustion marker evaluation. Isolated CD8 T cells were activated in bulk on day 0 using anti-CD3/anti-CD28 beads in T cell media supplemented with IL-2. On day 1, cells were transduced with the CAR Construct and cell density was adjusted to 0.5×10^6/ml and 10^6 cells were seeded into 12-well plates in the presence of vehicle, TWS119, or DCC-2036. On day 4, cells were transferred into 6-well plates and 2 ml of T cell media was added to each well. On day 6 another 2 ml of media was added to each well. On day 8, CAR T cells were analyzed on a flow cytometer for surface expression of phenotypic markers (CD62L, CCR7, and CD27) and exhaustion markers (PD-1 and Tim-3).
# To determine the effect of compound treatment of CAR-T cells on exhaustion marker expression, cells from three different donors were prepared and treated as described in the protocol above. PD-1 and Tim-3 expression was determined using flow cytometry. […] Tim-3 expression was reduced 2-fold with TWS119, and 3.7-fold with DCC-2036 treatment (FIG. 6A).
smiles,measurement,setting,value
"CNC(=O)c1cc(Oc2ccc(NC(=O)Nc3cc(C(C)(C)C)nn3-c3ccc4ncccc4c3)c(F)c2)ccn1 [DCC-2036, Rebastinib]","expression of key memory T cell genes (CCR7, CD62L etc.)",CD8+ T cells,increases in expression at levels similar to or greater than TWS-119
same,"expression of key memory T cell genes (CCR7, CD62L etc.)",CD8+ T cells; listed as DCC-2036 (FT-61314),increased expression
same,CAR-T cell viability,[1]; FIG. 3A,improved; also recorded: maintaining viability
same,CAR-T cell expansion,[1]; FIG. 3B,improved; also recorded: enhancing expansion
same,CD4 Hit,viable CD4+ population,CD4
same,expression of T cell exhaustion marker Tim-3,"CD8 CAR-T cells; CD8 T cells at one week post activation, relative to DMSO, FIG. 6A",reduced expression
same,expression of T cell exhaustion marker PD-1,"CD8 CAR-T cells; CD8 T cells at one week post activation, relative to DMSO, FIG. 6B",reduced expression
same,reduction of Tim-3 expression,"CD8 CAR-T cells; relative to vehicle, three donors, FIG. 6A",3.7 fold
same,decrease in PD-1 surface expression,"CD8 CAR-T cells; relative to vehicle, three donors, FIG. 6B",4.5 fold
